Experimental data as given in publication PMC10715162 (Microbiology Spectrum, 2023).

Biological target: T1, F-ATP synthase subunit γ (in MsF1-αβγH65W) (Mycolicibacterium smegmatis, UniProt A0R201, H65W)
T1 construct: gene atpG; recombinant MsF1-αβγH65W complex; with F-ATP synthase subunits α and β
Test: tryptophan fluorescence quenching titration
Type: binding

T1 sequence (A0R201 2-307 H65W): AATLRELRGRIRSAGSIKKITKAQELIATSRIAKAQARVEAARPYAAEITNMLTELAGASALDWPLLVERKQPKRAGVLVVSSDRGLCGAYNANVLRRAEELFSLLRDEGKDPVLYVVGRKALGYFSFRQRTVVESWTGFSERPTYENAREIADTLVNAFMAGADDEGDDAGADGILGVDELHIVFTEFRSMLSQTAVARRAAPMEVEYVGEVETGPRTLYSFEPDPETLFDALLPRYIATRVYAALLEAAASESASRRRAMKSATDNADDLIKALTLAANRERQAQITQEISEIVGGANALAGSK
T1 sequence (A0R202 2-548 partner): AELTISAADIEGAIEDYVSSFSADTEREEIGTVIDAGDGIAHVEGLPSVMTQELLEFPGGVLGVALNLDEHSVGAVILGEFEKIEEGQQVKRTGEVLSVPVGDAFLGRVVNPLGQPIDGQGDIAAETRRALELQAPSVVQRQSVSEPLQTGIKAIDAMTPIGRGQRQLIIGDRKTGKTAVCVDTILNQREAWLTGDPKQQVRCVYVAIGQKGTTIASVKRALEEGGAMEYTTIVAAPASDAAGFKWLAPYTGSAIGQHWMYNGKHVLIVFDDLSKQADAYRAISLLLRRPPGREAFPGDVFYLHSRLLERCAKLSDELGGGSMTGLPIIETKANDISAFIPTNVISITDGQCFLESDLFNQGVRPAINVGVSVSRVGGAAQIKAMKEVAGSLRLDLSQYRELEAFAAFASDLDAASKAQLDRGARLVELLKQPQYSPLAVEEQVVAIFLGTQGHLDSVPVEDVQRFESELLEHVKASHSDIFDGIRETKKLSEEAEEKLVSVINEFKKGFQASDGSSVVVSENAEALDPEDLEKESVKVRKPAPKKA
T1 sequence (A0R200 2-475 partner): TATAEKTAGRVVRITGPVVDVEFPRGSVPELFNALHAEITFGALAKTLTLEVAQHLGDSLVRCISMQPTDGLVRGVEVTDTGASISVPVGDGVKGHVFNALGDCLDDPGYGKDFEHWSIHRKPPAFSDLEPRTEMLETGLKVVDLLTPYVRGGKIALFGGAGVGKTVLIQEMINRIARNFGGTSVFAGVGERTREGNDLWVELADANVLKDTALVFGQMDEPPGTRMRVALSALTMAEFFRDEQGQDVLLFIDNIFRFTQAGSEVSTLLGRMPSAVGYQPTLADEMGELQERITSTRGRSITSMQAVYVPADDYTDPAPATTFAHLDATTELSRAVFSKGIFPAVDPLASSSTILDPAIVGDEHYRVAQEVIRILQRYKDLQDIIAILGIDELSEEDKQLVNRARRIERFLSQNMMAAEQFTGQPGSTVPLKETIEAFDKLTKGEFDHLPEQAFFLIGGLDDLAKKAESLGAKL

Q: `CCNc1cc(C)nc(Nc2ccc3nc(-c4ccc(Cl)cc4)[nH]c3c2)n1` [GaMF1.39] was tested. Which Kd did it give?
A: 0.7 ± 0.09 µM
